Measurements published in patent US10519132B2, “Isocorydine derivatives, preparation method and use thereof” (Lanzhou Institute of Chemical Physics, Chinese Academy of …, priority 2017, dated 2019).
Where two headings read alike, the source gives them in different places.

Legend:
[1] = tested on: human gastric cancer cell strain MGC-803; experiment: MTT growth inhibition on MGC-803;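 further: adherent cells exposed to compound over a concentration gradient for 24, 48 and 72 h, MTT absorbance at 490 nm, inhibition relative to untreated control wells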
Method: (§2) By using an MTT method, a sample solution to be tested was added to a 96-well plate in which cancer cells were adherently grown. Culturing was performed for a certain period, and the growth inhibition effect of a compound on a human cancer cell strain for primary screening was measured to determine the anti-cancer activity of the compound.
(§3) Cell culture: A cell incubator was set to conditions of 37° C., 5% CO2, and a saturated humidity, cells were cultured under these conditions, and the cell medium was a DMEM complete medium, wherein 10% fetal bovine serum, 100 IU/mL penicillin, and 100 μg/mL streptomycin were comprised.
(§4) The single cell suspension was diluted to 5×10^3/100 μL after counting, inoculated on a 96-well cell culture plate (triplicate), and adherently cultured overnight;
(§5) After 24 h of adhesion, the complete medium was discarded, 100 μL-sample-solutions to be tested having different concentrations were sequentially added to the 96-well plate according to a concentration gradient, and incubations were continued for 24 h, 48 h, and 72 h;
(§6) The culture liquid was discarded, a 0.5 mg/mL MTT diluted working liquid was added, and incubation was performed for 4 h by placing in an incubator;
(§7) The culture liquid was discarded, 100 μL of DMSO was added, low-speed oscillation was performed for 10 min by placing on a shaker, and the spectrophotometric value of each well was measured at a wavelength of 490 nm by using a microplate reader. Statistical analysis was performed and tumor cell growth inhibition rate was calculated according to the equation: Growth inhibition rate=(OD value of control group−OD value of experimental group)/OD value of control group.
(§8) Culturing was performed for a certain period, the growth inhibition effect of a compound on 3 human cancer cell strains for primary screening was measured to determine the anti-cancer activity of the compound, and a growth inhibition curve was plotted.

[2] = tested on: human cervical cancer Hela cell strains; experiment: MTT growth inhibition on Hela;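 further: compound exposure of 24, 48 or 72 h in DMEM with 10% fetal bovine serum, MTT absorbance read at 490 nm, inhibition calculated relative to control group OD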
Method: as §2, §3, §4, §5, §6, §7, §8

[3] = tested on: human liver cancer cell strain HepG2; experiment: MTT growth inhibition on HepG2; type: cell-based;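 further: adherent cells in 96-well plates treated with a concentration series for 24, 48 or 72 h, MTT absorbance read at 490 nm, inhibition computed relative to untreated control wells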
Method: as §2, §3, §4, §5, §6, §7, §8

[4] = tested on: C-Myc, Ki-67, CylinD1, β-Catenin protein; experiment: Western blotting, protein expression in HepG2 cells; type: cell-based, human; conditions: sorafenib 4 μg/mL, high COM33 dosage 10.0 μg/mL, combination 4 μg/mL sorafenib+5.0 μg/mL COM33
Protocol: (§1) Method: Gel electrophoresis of protein samples. Gel formulation: All components were added to a small beaker according to a formulation of a separation gel, uniformly mixed with slightly shaking to prevent the generation of bubbles, quickly applied to a seam of a glass plate with a 1 mL pipette, and then blocked with double distilled water to prevent oxidation. After 30 min, the separation gel solidified, the double distilled water thereof was poured off, waster was suctioned with a filter paper, a 5% concentration gel was formulated, TEMED was finally loaded onto the glass plate, and a 1.0 mm comb was inserted into the concentration gel and placed at room temperature for 30 min. The comb was slightly, vertically, and carefully pulled up, various groups of 20 μL protein samples were pipetted with a microsyringe, an equal volume of a loading buffer and an equal volume of a loading buffer containing 3 μL of Marker were separately added to a loading well, an electrophoresis instrument was switched on after electrodes were plugged, gels were run at 75V for 30 min, and the voltage was changed to 120V and gels were run for 2 h when bromophenol blue reaches the separation gel. Membrane transfer: A PVDF membrane having a suitable size was cut according to the size of the gel, placed in a methanol solution for 1 min, lifted, and placed and soaked together with a well cut filter paper in a previously precooled membrane transfer buffer. A sponge pad, three layers of filter paper, a gel, three layers of filter paper, and a sponge pad, in this order from top to bottom, were placed in a membrane transfer tank, and a precooled membrane transfer buffer was then added. Several ice bags were placed circumferentially to prevent an excessively hot external environment, and electrodes were plugged and membrane transfer was performed at a constant current of […] for 2.5 hours. Blocking and incubation of antibodies: A transferred membrane was cut into desired bands, which were placed in a blocking solution of 5% skim milk powder, placed on a shaker, and shaken at room temperature at a low speed for 1 h. A primary antibody was diluted with the blocking solution, a corresponding antibody was pipetted and added to a zip lock bag, the PVDF membrane was then placed in the antibody dilution, bubbles in the zip lock bag were evacuated, and the zip lock bag was sealed and placed in a refrigerator at 4° C. overnight. The membrane was withdrawn from the zip lock bag on the second day, and placed in a clean dish. A TBST solution was added and washed 3 times on a low-speed shaker, 10 min for each time. […]

[5] = tested on: ascites hepatoma H22 induced solid tumor; experiment: In vivo tumor growth inhibition in mice bearing H22; set-up: species or system white Kunming mice; conditions: Table 6; low COM33 dosage group (50 mg/Kg), intraperitoneal injection
Vimentin = experiment: Western blotting, Vimentin expression in HepG2 cells; type: cell-based, human; conditions: COM33 experiment (FIG. 17), combination compared to the sorafenib group
Protocol: as §1

[6] = tested on: ascites hepatoma H22 induced solid tumor; experiment: In vivo tumor growth inhibition in mice bearing H22; set-up: species or system white Kunming mice; conditions: Table 6; high COM33 dosage group (100 g/Kg), intraperitoneal injection
Excerpt: 1. Tumor strain and animal for experiments: H22 liver cancer cell strain was provided by Teaching and Research Office, School of Basic Medical Sciences, Lanzhou University/Key Lab of Preclinical Study for New Drugs of Gansu Province, and was passage and preserved by periodically intraperitoneal inoculation. White Kunming mice (18.0-22.0 g) were provided by Lanzhou Veterinary Institute, Chinese Academy of Agriculture.
2. Establishment of tumor models and method of grouping: a third passage of mice which were well grown 7 d after intraperitoneal inoculation of H22 tumor cells were sacrificed by cervical dislocation, and placed and soaked in 75% alcohol for 10 min. After 3 mL of sterile physiological saline was intraperitoneally injected, milky tumor cell ascites was withdrawn from the abdominal cavity, and formulated into a tumor cell suspension with sterile physiological saline, with a cell number of 1.5×10^7 mL^−1. 80 white Kunming mice were taken, and 0.2 mL of the tumor cell suspension was subcutaneously inoculated to the left axilla of each mouse. 24 h after the inoculation of tumor cells, the mice were divided into 8 groups according to body weights, 10 mice for each group. […] All of the administration manners were intraperitoneal administration.
3. Result of experiments: On the second day of modeling, continuous administration was performed for 10 d. Administration was stopped on the 11th d, and mice were sacrificed by cervical dislocation on the next day.
Test method: For the test method, see Example 24. Results can be seen in FIG. 15, FIG. 16, and Table 5.
Method: Modeling was performed by using the method of establishing H22 white mice tumor-bearing model of Example 24. The in vivo tumor growth inhibition activity of COM33 on H22 model mice was measured in an intraperitoneal injection administration manner.

[7] = Homo sapiens, MGC-803, read-out: IC50 MGC-803, Table 1, MTT
[8] = Homo sapiens, HeLa, read-out: IC50 HeLa, Table 1, MTT
[9] = Homo sapiens, HepG2, Table 1, MTT, read-out: IC50 HepG2
[10] = Homo sapiens, MGC-803, read-out: IC50 MGC-803
[11] = Homo sapiens, HeLa, read-out: IC50 HeLa
[12] = Homo sapiens, HepG2, read-out: IC50 HepG2

IC50 [1, 7]	IC50 [2, 8]	IC50 [3, 9]	SMILES	IC50 [1, 10]	IC50 [2, 11]	other results
34.7 µM	49.6 µM	69.8 µM	COc1cc(NC(=O)c2cccnc2)c2c(c1O)-c1c(OC)c(OC)cc3c1C(C2)N(C)CC3 (stereo not shown) [Compound 14, 8-N-nicotinamido-isocorydine]			
37.9 µM	74.5 µM	63.4 µM	COc1cc(NC(=O)/C=C/c2ccccc2)c2c(c1O)-c1c(OC)c(OC)cc3c1C(C2)N(C)CC3 (stereo not drawn) [Compound 12, 8-N-trans-cinnamoyl-isocorydine]			
35.2 µM	36.9 µM	36.7 µM	COc1cc(NC(=O)Nc2ccccc2Cl)c2c(c1O)-c1c(OC)c(OC)cc3c1C(C2)N(C)CC3 (stereo not shown) [Compound 5, 8-(N-(2′-dichloro-phenyl))ureido-isocorydine]			
47.8 µM	46.6 µM	53.2 µM	COc1cc(NC(=O)Nc2ccc(SC)cc2)c2c(c1O)-c1c(OC)c(OC)cc3c1C(C2)N(C)CC3 (stereo not shown) [Compound 4, 8-(N-(4′-methylsulfide-phenyl))-ureido-isocorydine]			
21.9 µM	16.6 µM	21.5 µM	COc1cc(NC(=O)c2ccc(Cl)c(C(F)(F)F)c2)c2c(c1O)-c1c(OC)c(OC)cc3c1C(C2)N(C)CC3 (stereo not shown) [Compound 11, 8-N-(3′-trifluoromethyl-4′-chloro-benzoyl)-isocorydine]			

Second part, the compound before the results:

SMILES	IC50 [1, 7]	IC50 [2, 8]	IC50 [3, 9]	IC50 [1, 10]	IC50 [2, 11]	other results
COC1=CC(=O)c2cc3c4c(cc(OC)c(OC)c4c2C1=O)CCN3C [TICD, isocorydione, reference compound]						IC50 ([1]; read-out: IC50 MGC-803, Table 2, MTT): 49.6 µM; IC50 ([2]; read-out: IC50 Hela, Table 2, MTT): 31.3 µM; IC50 ([3]; Table 2, MTT, read-out: IC50 HepG2): 40 µM
COc1cc(NC(=O)Nc2ccc(N3CCC(CN)CC3)c(C(F)(F)F)c2)c2c(c1O)-c1c(OC)c(OC)cc3c1[C@H](C2)N(C)CC3 [Compound 17]	< 10 µM	< 10 µM	< 10 µM			expressions of C-Myc, Ki-67, CylinD1 and β-Catenin protein compared to the blank control group [4]: significantly reduced; IC50 ([1]; Homo sapiens, MGC-803, read-out: IC50 MGC-803, Table 2, MTT): 11.1 µM; Tumor inhibition rate (%) [5]: 27.2%; Vimentin expression (Vimentin): expressed in all groups; IC50 ([2]; Homo sapiens, HeLa, read-out: IC50 Hela, Table 2, MTT): 6.32 µM; IC50 ([3]; Homo sapiens, HepG2, Table 2, MTT, read-out: IC50 HepG2): 7.51 µM; Tumor inhibition rate (%) [6]: 73.8%
COc1cc(NC(=O)Nc2ccc(C(F)(F)F)cc2)c2c(c1O)-c1c(OC)c(OC)cc3c1C(C2)N(C)CC3 (stereo not shown) [Compound 8, 8-(N-(4′-trifluoromethyl-phenyl))-ureido-isocorydine]	57.3 µM	49 µM	45.9 µM			
COc1cc(NC(=O)Nc2ccccc2)c2c(c1O)-c1c(OC)c(OC)cc3c1C(C2)N(C)CC3 (stereo not shown) [Compound 15, 8-N-(phenyl)-ureido-isocorydine]			75.4 µM	56.6 µM	62.1 µM	
COc1cc(NC(=O)Nc2ccc(C(F)(F)F)cc2)c2c(c1OC(=O)Nc1ccc(C(F)(F)F)cc1)-c1c(OC)c(OC)cc3c1C(C2)N(C)CC3 (stereo not shown) [Compound 9]				39.3 µM	47.7 µM	IC50 [3, 12]: 44.1 µM
COc1cc(NC(=O)Nc2ccccc2Cl)c2c(c1OC(=O)Nc1ccccc1Cl)-c1c(OC)c(OC)cc3c1C(C2)N(C)CC3 (stereo not shown) [Compound 6]				26.9 µM	27.1 µM	IC50 [3, 12]: 17.2 µM
COc1cc(NC(=O)Nc2ccc(F)cc2)c2c(c1OC(=O)Nc1ccc(F)cc1)-c1c(OC)c(OC)cc3c1C(C2)N(C)CC3 (stereo not shown) [Compound 10]				25.1 µM	26.8 µM	IC50 [3, 12]: 26.7 µM
COc1cc(NC(=O)Nc2ccc(N3CCC(NC(=O)OC(C)(C)C)CC3)c(C(F)(F)F)c2)c2c(c1O)-c1c(OC)c(OC)cc3c1C(C2)N(C)CC3 (stereo not shown) [Compound 19, 8-N-[3′-trifluoromethyl-4′-(4″-aminoformic acid tert-butyl ester-piperidine)-phenyl]-ureido isocorydine]	28.7 µM	26.7 µM	25.9 µM			
CCC(=O)NCC1CCN(c2ccc(NC(=O)Nc3cc(OC)c(O)c4c3CC3c5c(cc(OC)c(OC)c5-4)CCN3C)cc2C(F)(F)F)CC1 (stereo not shown) [Compound 18, 8-[3-trifluoromethyl-4-(4-methylaminoformic acid propyl ester)-piperidine]benzoylureido isocorydine]	10.4 µM	12.5 µM	10.7 µM			
COc1cc(NC(=O)Nc2ccc(C)cc2)c2c(c1OC(=O)Nc1ccc(C)cc1)-c1c(OC)c(OC)cc3c1C(C2)N(C)CC3 (stereo not shown) [Compound 3]				25.6 µM	19.1 µM	IC50 [3, 12]: 16.1 µM
COc1cc(NC(=O)Nc2ccccc2C)c2c(c1OC(=O)Nc1ccccc1C)-c1c(OC)c(OC)cc3c1C(C2)N(C)CC3 (stereo not shown) [Compound 7]				22.8 µM	43.9 µM	IC50 [3, 12]: 31.4 µM
COc1cc(NC(=O)Nc2ccc(Cl)c(Cl)c2)c2c(c1O)-c1c(OC)c(OC)cc3c1C(C2)N(C)CC3 (stereo not shown) [Compound 2, 8-(N-(3′,4′-dichloro-phenyl))-ureido-isocorydine]			28.4 µM	30 µM	21.7 µM	
COc1cc(NC(=O)Nc2ccc(N3CCC(N)CC3)c(C(F)(F)F)c2)c2c(c1O)-c1c(OC)c(OC)cc3c1C(C2)N(C)CC3 (stereo not shown) [Compound 20, 8-(N-(3′-trifluoromethyl-4′-(4″-amino-piperidine)-phenyl))-ureido-isocorydine]	22.3 µM	13.7 µM	18.6 µM			
COc1cc(NC(=O)c2cc(Cc3n[nH]c(=O)c4ccccc34)ccc2F)c2c(c1O)-c1c(OC)c(OC)cc3c1C(C2)N(C)CC3 (stereo not shown) [Compound 13, 8-N-[2-fluoro-5-(4-oxo-3,4-dihydrophthalazin-1-yl)methyl]benzamido isocorydine]	27.2 µM	29.6 µM	30.2 µM			
COc1cc(NC(=O)Nc2ccc(N3CCC(CNC(=O)OC(C)(C)C)CC3)c(C(F)(F)F)c2)c2c(c1O)-c1c(OC)c(OC)cc3c1C(C2)N(C)CC3 (stereo not shown) [Compound 16, 8-[3-trifluoromethyl-4-(4-methylaminoformic acid tert-butyl ester)piperidine]benzoylureido isocorydine]	23.2 µM	22.1 µM	18.9 µM			
